Experiments:
[1] = tested on: HEC-1; test: cells; assay type: functional, cell-based; conditions: Homo sapiens;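 further: growth inhibition of the cell line, read out with a cell viability assay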
Description: SANGER: Inhibition of human HEC-1 cell growth in a cell viability assay.

[2] = tested on: SCC-3; test: cells; assay type: functional, cell-based, Homo sapiens; conditions: Homo sapiens, SCC-3;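 further: cell viability assay measuring inhibition of SCC-3 cell growth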
Description: SANGER: Inhibition of human SCC-3 cell growth in a cell viability assay.

[3] = tested on: SK-MEL-30; test: cells; assay type: functional, cell-based; conditions: Homo sapiens;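 further: growth inhibition of SK-MEL-30 cells, determined with a cell viability assay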
Description: SANGER: Inhibition of human SK-MEL-30 cell growth in a cell viability assay.

[4] = tested on: HSC-4; test: cells; assay type: functional, cell-based; conditions: Homo sapiens;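 further: growth inhibition of human HSC-4 cells, read out with a cell viability assay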
Description: SANGER: Inhibition of human HSC-4 cell growth in a cell viability assay.

[5] = tested on: JEG-3; test: cells; assay type: functional, cell-based; conditions: Homo sapiens;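 further: growth inhibition of human JEG-3 cells, read out with a cell viability assay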
Description: SANGER: Inhibition of human JEG-3 cell growth in a cell viability assay.

[6] = tested on: Huh-7; test: cells; assay type: functional, cell-based; conditions: Homo sapiens;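 further: HuH-7 cell growth inhibition, read out with a cell viability assay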
Description: SANGER: Inhibition of human HuH-7 cell growth in a cell viability assay.

[7] = tested on: LC-1F; test: cells; assay type: functional, cell-based, Homo sapiens; conditions: Homo sapiens, LC-1F;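 further: growth inhibition of human LC-1F cells, read out with a cell viability assay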
Description: SANGER: Inhibition of human LC-1F cell growth in a cell viability assay.

[8] = tested on: RT-112; test: cells; assay type: functional, cell-based; conditions: Homo sapiens
Description: SANGER: Inhibition of human RT-112 cell growth in a cell viability assay.

[9] = tested on: NCI-H1623; test: cells; assay type: functional, cell-based; conditions: Homo sapiens;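 further: cell viability assay used as the read-out for growth inhibition of NCI-H1623 cells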
Description: SANGER: Inhibition of human NCI-H1623 cell growth in a cell viability assay.

[10] = tested on: NCI-H1993; test: cells; assay type: functional, cell-based; conditions: Homo sapiens;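 further: growth inhibition of the cancer cell line, assessed with a cell viability assay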
Description: SANGER: Inhibition of human NCI-H1993 cell growth in a cell viability assay.

[11] = tested on: NCI-H460; test: cells; assay type: functional, cell-based; conditions: Homo sapiens;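 further: cell viability assay scoring growth inhibition of human NCI-H460 cells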
Description: SANGER: Inhibition of human NCI-H460 cell growth in a cell viability assay.

[12] = tested on: NCI-H2141; test: cells; assay type: functional, cell-based, Homo sapiens; conditions: Homo sapiens, NCI-H2141;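 further: growth inhibition of human NCI-H2141 cells, read out with a cell viability assay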
Description: SANGER: Inhibition of human NCI-H2141 cell growth in a cell viability assay.

[13] = tested on: CAL-27; test: cells; assay type: functional, cell-based; conditions: Homo sapiens;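 further: Viability-based readout, IC50 reflecting inhibition of CAL-27 cell growth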
Description: SANGER: Inhibition of human CAL-27 cell growth in a cell viability assay.

[14] = tested on: CHP-126; test: cells; assay type: functional, cell-based, Homo sapiens; conditions: Homo sapiens, CHP-126
Description: SANGER: Inhibition of human CHP-126 cell growth in a cell viability assay.

[15] = tested on: SKG-IIIa; test: cells; assay type: functional, cell-based; conditions: Homo sapiens;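 further: cell growth inhibition, read out with a cell viability assay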
Description: SANGER: Inhibition of human SKG-IIIa cell growth in a cell viability assay.

[16] = tested on: NB12; test: cells; assay type: functional, cell-based; conditions: Homo sapiens;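 further: growth inhibition of human NB12 cells, read out by a cell viability assay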
Description: SANGER: Inhibition of human NB12 cell growth in a cell viability assay.

[17] = tested on: SW756; test: cells; assay type: functional, cell-based; conditions: Homo sapiens;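 further: growth inhibition of human SW756 cells, read out with a cell viability assay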
Description: SANGER: Inhibition of human SW756 cell growth in a cell viability assay.

[18] = tested on: WM-115; test: cells; assay type: functional, cell-based; conditions: Homo sapiens
Description: SANGER: Inhibition of human WM-115 cell growth in a cell viability assay.

[19] = tested on: T-24; test: cells; assay type: functional, cell-based; conditions: Homo sapiens;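 further: growth inhibition of T-24 cells, read out with a cell viability assay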
Description: SANGER: Inhibition of human T-24 cell growth in a cell viability assay.

[20] = tested on: NCI-H1882; test: cells; assay type: functional, cell-based, Homo sapiens; conditions: Homo sapiens, NCI-H1882;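 further: growth inhibition of the cell line, determined with a viability assay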
Description: SANGER: Inhibition of human NCI-H1882 cell growth in a cell viability assay.

[21] = tested on: LOUCY; test: cells; assay type: functional, cell-based, Homo sapiens; conditions: Homo sapiens, LOUCY;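 further: growth inhibition of human LOUCY cells, read out with a cell viability assay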
Description: SANGER: Inhibition of human LOUCY cell growth in a cell viability assay.

[22] = tested on: HCC 2998; test: cells; assay type: functional, cell-based; conditions: Homo sapiens;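 further: growth inhibition of human HCC2998 cells, measured with a cell viability read-out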
Description: SANGER: Inhibition of human HCC2998 cell growth in a cell viability assay.

[23] = tested on: ECC4; test: cells; assay type: functional, cell-based, Homo sapiens; conditions: Homo sapiens, ECC4;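 further: growth inhibition of ECC4 cells, read out with a cell viability assay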
Description: SANGER: Inhibition of human ECC4 cell growth in a cell viability assay.

[24] = tested on: LC4-1; test: cells; assay type: functional, cell-based, Homo sapiens; conditions: Homo sapiens, LC4-1;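 further: growth inhibition of LC4-1 cells, read out with a cell viability assay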
Description: SANGER: Inhibition of human LC4-1 cell growth in a cell viability assay.

[25] = tested on: SW1710; test: cells; assay type: functional, cell-based; conditions: Homo sapiens;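 further: growth inhibition of SW1710 cells, determined with a cell viability assay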
Description: SANGER: Inhibition of human SW1710 cell growth in a cell viability assay.

[26] = tested on: KYSE-410; test: cells; assay type: functional, cell-based; conditions: Homo sapiens;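 further: growth inhibition of KYSE-410 cells, measured through a cell viability readout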
Description: SANGER: Inhibition of human KYSE-410 cell growth in a cell viability assay.

[27] = tested on: KOSC-2; test: cells; assay type: functional, cell-based; conditions: Homo sapiens;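 further: growth inhibition of KOSC-2 cells, read out by a cell viability assay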
Description: SANGER: Inhibition of human KOSC-2 cell growth in a cell viability assay.

[28] = tested on: SIMA; test: cells; assay type: functional, cell-based, Homo sapiens; conditions: Homo sapiens, SIMA;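 further: growth inhibition of SIMA cells, measured with a cell viability readout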
Description: SANGER: Inhibition of human SIMA cell growth in a cell viability assay.

[29] = tested on: HT55; test: cells; assay type: functional, cell-based; conditions: Homo sapiens;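 further: cell viability readout measuring growth inhibition of human HT55 cells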
Description: SANGER: Inhibition of human HT55 cell growth in a cell viability assay.

[30] = tested on: HuO9; test: cells; assay type: functional, cell-based; conditions: Homo sapiens;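 further: growth inhibition of HuO9 cells, read out with a cell viability assay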
Description: SANGER: Inhibition of human HuO9 cell growth in a cell viability assay.

[31] = tested on: NCI-H661; test: cells; assay type: functional, cell-based; conditions: Homo sapiens;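 further: cell viability assay read-out, IC50 being the concentration that inhibits growth of the cells by half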
Description: SANGER: Inhibition of human NCI-H661 cell growth in a cell viability assay.

[32] = tested on: SCLC-21H; test: cells; assay type: functional, cell-based, Homo sapiens; conditions: Homo sapiens, SCLC-21H;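 further: growth inhibition of cultured human SCLC-21H cells, read out with a cell viability assay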
Description: SANGER: Inhibition of human SCLC-21H cell growth in a cell viability assay.

[33] = tested on: SNU-423; test: cells; assay type: functional, cell-based; conditions: Homo sapiens
Description: SANGER: Inhibition of human SNU-423 cell growth in a cell viability assay.

[34] = tested on: M059J; test: cells; assay type: functional, cell-based; conditions: Homo sapiens;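 further: growth inhibition of M059J cells, read out with a cell viability assay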
Description: SANGER: Inhibition of human M059J cell growth in a cell viability assay.

[35] = tested on: AN3-CA; test: cells; assay type: functional, cell-based; conditions: Homo sapiens;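 further: growth inhibition of human AN3-CA cells measured by a cell viability assay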
Description: SANGER: Inhibition of human AN3-CA cell growth in a cell viability assay.

[36] = tested on: UACC-893; test: cells; assay type: functional, cell-based; conditions: Homo sapiens
Description: SANGER: Inhibition of human UACC-893 cell growth in a cell viability assay.

[37] = tested on: EB-3; test: cells; assay type: functional, cell-based, Homo sapiens; conditions: Homo sapiens, EB-3;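 further: human EB-3 cells, growth inhibition read out via a cell viability assay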
Description: SANGER: Inhibition of human EB-3 cell growth in a cell viability assay.

[38] = tested on: HCC1569; test: cells; assay type: functional, cell-based; conditions: Homo sapiens;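 further: growth inhibition of human HCC1569 cells, read out with a cell viability assay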
Description: SANGER: Inhibition of human HCC1569 cell growth in a cell viability assay.

[39] = tested on: CP66-MEL; test: cells; assay type: functional, cell-based; conditions: Homo sapiens;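 further: growth inhibition of CP66-MEL cells determined in a cell viability assay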
Description: SANGER: Inhibition of human CP66-MEL cell growth in a cell viability assay.

[40] = tested on: PF-382; test: cells; assay type: functional, cell-based, Homo sapiens; conditions: Homo sapiens, PF-382
Description: SANGER: Inhibition of human PF-382 cell growth in a cell viability assay.

[41] = tested on: NCI-H650; test: cells; assay type: functional, cell-based; conditions: Homo sapiens;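 further: growth inhibition of NCI-H650 cells, read out by a viability assay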
Description: SANGER: Inhibition of human NCI-H650 cell growth in a cell viability assay.

[42] = tested on: BXPC-3; test: cells; assay type: functional, cell-based; conditions: Homo sapiens;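 further: growth inhibition of human BxPC-3 cells, read out by a cell viability assay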
Description: SANGER: Inhibition of human BxPC-3 cell growth in a cell viability assay.

[43] = tested on: ST486; test: SANGER: Inhibition of human ST486 cell growth in a cell viability assay.; assay type: functional, cell-based; conditions: Homo sapiens, ST486
[44] = tested on: Panc1005; test: cells; assay type: functional, cell-based; conditions: Homo sapiens;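 further: growth inhibition of human PANC-10-05 cells, measured by a cell viability assay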
Description: SANGER: Inhibition of human PANC-10-05 cell growth in a cell viability assay.

[45] = tested on: HT-29; test: cells; assay type: functional, cell-based; conditions: Homo sapiens;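 further: growth inhibition of human HT-29 cells, read out by a cell viability assay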
Description: SANGER: Inhibition of human HT-29 cell growth in a cell viability assay.

[46] = tested on: YKG-1; test: cells; assay type: functional, cell-based; conditions: Homo sapiens;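 further: cell growth inhibition, read out with a viability assay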
Description: SANGER: Inhibition of human YKG-1 cell growth in a cell viability assay.

[47] = tested on: ME-180; test: cells; assay type: functional, cell-based; conditions: Homo sapiens;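 further: cell viability assay measuring growth inhibition of ME-180 cells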
Description: SANGER: Inhibition of human ME-180 cell growth in a cell viability assay.

[48] = tested on: NCI-H2196; test: cells; assay type: functional, cell-based, Homo sapiens; conditions: Homo sapiens, NCI-H2196; read-out: IC50;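 further: cell viability assay used as the readout of growth inhibition in NCI-H2196 cells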
Description: SANGER: Inhibition of human NCI-H2196 cell growth in a cell viability assay.

[49] = tested on: C3A; test: cells; assay type: functional, cell-based; conditions: Homo sapiens;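 further: growth inhibition of C3A human cells, quantified with a cell viability readout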
Description: SANGER: Inhibition of human C3A cell growth in a cell viability assay.

[50] = tested on: Hs-578T; test: cells; assay type: functional, cell-based; conditions: Homo sapiens
Description: SANGER: Inhibition of human Hs-578-T cell growth in a cell viability assay.

[51] = tested on: NY; test: cells; assay type: functional, cell-based; conditions: Homo sapiens
Description: SANGER: Inhibition of human NY cell growth in a cell viability assay.

[52] = tested on: COLO-680N; test: cells; assay type: functional, cell-based; conditions: Homo sapiens;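 further: cell viability assay used to measure inhibition of COLO-680N cell growth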
Description: SANGER: Inhibition of human COLO-680N cell growth in a cell viability assay.

[53] = tested on: BHT-101; test: cells; assay type: functional, cell-based; conditions: Homo sapiens
Description: SANGER: Inhibition of human BHT-101 cell growth in a cell viability assay.

[54] = tested on: MDA-MB-415; test: cells; assay type: functional, cell-based; conditions: Homo sapiens
[55] = tested on: UACC-62; test: cells; assay type: functional, cell-based; conditions: Homo sapiens;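 further: growth inhibition of human UACC-62 cells, read out by a cell viability assay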
Description: SANGER: Inhibition of human UACC-62 cell growth in a cell viability assay.

[56] = tested on: UO-31; test: cells; assay type: functional, cell-based; conditions: Homo sapiens
Description: SANGER: Inhibition of human U031 cell growth in a cell viability assay.

[57] = tested on: CPC-N; test: cells; assay type: functional, cell-based, Homo sapiens; conditions: Homo sapiens, CPC-N;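 further: growth inhibition of CPC-N cells, with a cell viability assay as the readout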
Description: SANGER: Inhibition of human CPC-N cell growth in a cell viability assay.

[58] = tested on: TCC-SUP; test: cells; assay type: functional, cell-based; conditions: Homo sapiens;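 further: growth inhibition of TCC-SUP cells, read out with a cell viability assay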
Description: SANGER: Inhibition of human TCCSUP cell growth in a cell viability assay.

[59] = tested on: MDA-MB-231; test: cells; assay type: functional, cell-based; conditions: Homo sapiens
Description: SANGER: Inhibition of human MDA-MB-231 cell growth in a cell viability assay.

Cc1ccc(C(=O)Nc2ccc(CN3CCN(C)CC3)c(C(F)(F)F)c2)cc1C#Cc1cnc2cccnn12 [PONATINIB]
IC50 [1]: > 512 nM | IC50 [2]: > 512 nM | IC50 [3]: > 512 nM | IC50 [4]: > 512 nM | IC50 [5]: > 512 nM | IC50 [6]: 278 nM | IC50 [7]: > 512 nM | IC50 [8]: 238 nM | IC50 [9]: > 512 nM | IC50 [10]: > 512 nM | IC50 [11]: > 512 nM | IC50 [12]: > 512 nM | IC50 [13]: > 512 nM | IC50 [14]: > 512 nM | IC50 [15]: > 512 nM | IC50 [16]: > 512 nM | IC50 [17]: > 512 nM | IC50 [18]: > 512 nM | IC50 [19]: > 512 nM | IC50 [20]: > 512 nM | IC50 [21]: > 512 nM | IC50 [22]: > 512 nM | IC50 [23]: > 512 nM | IC50 [24]: > 512 nM | IC50 [25]: 365 nM | IC50 [26]: > 512 nM | IC50 [27]: > 512 nM | IC50 [28]: > 512 nM | IC50 [29]: > 512 nM | IC50 [30]: 54.5 nM | IC50 [31]: > 512 nM | IC50 [32]: > 512 nM | IC50 [33]: > 512 nM | IC50 [34]: > 512 nM | IC50 [35]: 18.7 nM | IC50 [36]: > 512 nM | IC50 [37]: > 512 nM | IC50 [38]: > 512 nM | IC50 [39]: > 512 nM | IC50 [40]: 209 nM | IC50 [41]: > 512 nM | IC50 [42]: 350 nM | IC50 [43]: > 512 nM | IC50 [44]: > 512 nM | IC50 [45]: > 512 nM | IC50 [46]: > 512 nM | IC50 [47]: > 512 nM | IC50 [48]: > 512 nM | IC50 [49]: > 512 nM | IC50 [50]: > 512 nM | IC50 [51]: 193 nM | IC50 [52]: > 512 nM | IC50 [53]: > 512 nM | IC50 [54]: > 512 nM | IC50 [55]: > 512 nM | IC50 [56]: > 512 nM | IC50 [57]: > 512 nM

CC1=C(/C=C/C(C)=C/C=C/C(C)=C/C(=O)O)C(C)(C)CCC1 [TRETINOIN]
IC50 [1]: > 10000 nM | IC50 [3]: > 10000 nM | IC50 [4]: > 10000 nM | IC50 [5]: > 10000 nM | IC50 [6]: > 10000 nM | IC50 [8]: > 10000 nM | IC50 [9]: > 10000 nM | IC50 [10]: > 10000 nM | IC50 [11]: > 10000 nM | IC50 [13]: > 10000 nM | IC50 [15]: > 10000 nM | IC50 [16]: > 10000 nM | IC50 [17]: > 10000 nM | IC50 [18]: > 10000 nM | IC50 [58]: > 10000 nM | IC50 [19]: > 10000 nM | IC50 [22]: > 10000 nM | IC50 [25]: > 10000 nM | IC50 [26]: > 10000 nM | IC50 [27]: > 10000 nM | IC50 [29]: > 10000 nM | IC50 [30]: > 10000 nM | IC50 [31]: > 10000 nM | IC50 [33]: > 10000 nM | IC50 [34]: > 10000 nM | IC50 [35]: > 10000 nM | IC50 [36]: > 10000 nM | IC50 [38]: > 10000 nM | IC50 [39]: > 10000 nM | IC50 [41]: > 10000 nM | IC50 [42]: > 10000 nM | IC50 [44]: > 10000 nM | IC50 [45]: > 10000 nM | IC50 [46]: > 10000 nM | IC50 [47]: > 10000 nM | IC50 [49]: > 10000 nM | IC50 [50]: > 10000 nM | IC50 [51]: > 10000 nM | IC50 [52]: > 10000 nM | IC50 [53]: > 10000 nM | IC50 [59]: > 10000 nM | IC50 [54]: > 10000 nM | IC50 [55]: > 10000 nM | IC50 [56]: > 10000 nM

NC(=O)c1ccc(N(C(N)=O)c2c(F)cccc2F)nc1-c1ccc(F)cc1F [VX-702]
IC50 [1]: > 2000 nM | IC50 [3]: > 2000 nM | IC50 [4]: > 2000 nM | IC50 [5]: > 2000 nM | IC50 [6]: > 2000 nM | IC50 [8]: > 2000 nM | IC50 [9]: > 2000 nM | IC50 [10]: > 2000 nM | IC50 [11]: > 2000 nM | IC50 [13]: > 2000 nM | IC50 [15]: > 2000 nM | IC50 [16]: > 2000 nM | IC50 [17]: > 2000 nM | IC50 [18]: > 2000 nM | IC50 [58]: > 2000 nM | IC50 [19]: > 2000 nM | IC50 [22]: > 2000 nM | IC50 [25]: > 2000 nM | IC50 [26]: > 2000 nM | IC50 [27]: > 2000 nM | IC50 [29]: > 2000 nM | IC50 [30]: > 2000 nM | IC50 [31]: > 2000 nM | IC50 [33]: > 2000 nM | IC50 [34]: > 2000 nM | IC50 [35]: > 2000 nM | IC50 [36]: > 2000 nM | IC50 [38]: > 2000 nM | IC50 [39]: > 2000 nM | IC50 [41]: > 2000 nM | IC50 [42]: > 2000 nM | IC50 [44]: > 2000 nM | IC50 [45]: > 2000 nM | IC50 [46]: > 2000 nM | IC50 [47]: > 2000 nM | IC50 [49]: > 2000 nM | IC50 [50]: > 2000 nM | IC50 [51]: > 2000 nM | IC50 [52]: > 2000 nM | IC50 [53]: > 2000 nM | IC50 [59]: > 2000 nM | IC50 [54]: > 2000 nM | IC50 [55]: > 2000 nM | IC50 [56]: > 2000 nM
